B1: MPGHSRLLSILVSGLCVVGSSIGVLRRREQAERGSRRCAIAGEERAMLSPSPLPE TPFSPEKGAAFSPIYPRRK (protein, listed as Homo sapiens)
chain: MPGHSRLLSILVSGLCVVGSSIGVLRRREQAERGSRRCAIAGEERAMLSPSPLPETPFSPEKGAAFSPIYPRRK
notes: full length polypeptide of 74 amino acid residues described in WO 2009/083968

Assays:
[1] = test system: human ovarian cancer cells (OV90); assay: Relative tumor volume in nude mice inoculated with human ovarian cancer cells; format: in vivo; settings: OV90 tumors; APC1 15 mg/kg, doxorubicin 3 mg/kg once a week; 5 weeks; control increased linearly
Procedure: During the treatment period, each mouse was weighted, and the tumor size was measured by Digital caliper.
When the tumors exceeded a volume of 40 mm^3 or 50 mm^3 (for OV90 and Panc1, respectively), the mice were randomly divided into four groups of 8 mice each, as follows. A control group was treated with saline only, the APC1-treated group was treated three times a week with doses of APC1 at 15 mg/kg each, the doxorubicin and APC treated group was treated twice a week with doses of APC1 (at 15 mg/kg each) and once a week with doxorubicin (at 3 mg/kg) and the doxorubicin-treated group was treated with doxorubicin only, once a week at a dose of 3 mg/kg. These dosing protocols were repeated throughout the experiment, namely for 5 weeks.

[2] = test system: human TNBC tumors (MDA-MB-231); assay: Relative tumor volume in nude mice inoculated with TNBC cells; format: in vivo; settings: MDA-MB-231 tumors; APC1 15 mg/kg, doxorubicin 3 mg/kg once a week; 5 weeks; control increased linearly
Source text: To this end, mice were inoculated with TNBC cells as detailed above, briefly 32 nude mice were inoculated subcutaneously with TNBC cells (MDA-MB-231, 8×10^6 cells per mouse).

[3] = test system: leukemia and prostate cancer cells; settings: WO 2009/083968; cited from earlier work
tumor = settings: WO 2009/083968; cited from earlier work

Molecule	relative tumor volume [1]	relative tumor volume [2]	viability of leukemia and prostate cancer cells [3]	tumor growth in mice (tumor)
COc1cccc2c1C(=O)c1c(O)c3c(c(O)c1C2=O)C[C@@](O)(C(=O)CO)C[C@@H]3O[C@H]1C[C@H](N)[C@H](O)[C@H](C)O1 [doxorubicin, (7S,9S)-7-[(2R,4S,5S,6S)-4-amino-5-hydroxy-6-methyloxan-2-yl]oxy-6,9,11-trihydroxy-9-(2-hydroxyacetyl)-4-methoxy-8,10-dihydro-7H-tetracene-5,12-dione, reference compound]	modest increases	moderate increase		
B1			decrease in the viability	prevention of tumor growth

Source: patent US12071488B2, “Method of sensitizing cancer cells to anti-cancer treatment” (TWO TO BIOTECH LTD., priority 2017, dated 2024)
